{
  "source": "patent US20180125993A1",
  "about": "(BEIJING COTIMES BIOTECH COMPANY LIMITED, priority 2014, published 2018)",
  "key": {"ZR-75-30": {"test_system": "ZR-75-30", "assay": "In vitro cytotoxic sensitivity of CTB006", "format": "cell-based, human", "settings": "ZR-75-30, Breast cancer"}, "[1]": {"molecular_target": "T1, DcR1-His (recombinant human TRAIL R3/TNFRSF10C) (Homo sapiens, UniProt O14798)", "T1 construct": "His; purchased Novoprotein Science", "T1 sequence (O14798 26-236)": "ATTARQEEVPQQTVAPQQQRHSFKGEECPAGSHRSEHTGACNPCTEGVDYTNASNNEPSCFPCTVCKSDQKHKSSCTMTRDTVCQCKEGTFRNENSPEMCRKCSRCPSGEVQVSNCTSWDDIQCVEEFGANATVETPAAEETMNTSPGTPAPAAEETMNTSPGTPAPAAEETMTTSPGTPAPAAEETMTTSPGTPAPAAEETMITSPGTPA", "assay": "Binding specificity by chemiluminescent enzyme immunoassay (CLEIA)", "settings": "antibody 200, 40 and 8 ng/mL; 1 hour, 37° C.", "description": "(§1) The binding specificity of HuCTB006 was evaluated by chemiluminescent enzyme immunoassay (CLEIA).\n(§2) HuCTB006 was diluted into 200, 40 and 8 ng/mL and then added to the wells. After 1 hour incubation in 37° C., the plate was washed. The binding of HuCTB006 with immobilized antigens was detected with HRP labeled secondary antibody and a substrate solution."}, "[2]": {"molecular_target": "T2, DcR2-His (recombinant human TRAIL R4/TNFRSF10D) (Homo sapiens, UniProt Q9UBN6)", "T2 construct": "His; purchased Sino Biological", "T2 sequence (Q9UBN6 56-386)": "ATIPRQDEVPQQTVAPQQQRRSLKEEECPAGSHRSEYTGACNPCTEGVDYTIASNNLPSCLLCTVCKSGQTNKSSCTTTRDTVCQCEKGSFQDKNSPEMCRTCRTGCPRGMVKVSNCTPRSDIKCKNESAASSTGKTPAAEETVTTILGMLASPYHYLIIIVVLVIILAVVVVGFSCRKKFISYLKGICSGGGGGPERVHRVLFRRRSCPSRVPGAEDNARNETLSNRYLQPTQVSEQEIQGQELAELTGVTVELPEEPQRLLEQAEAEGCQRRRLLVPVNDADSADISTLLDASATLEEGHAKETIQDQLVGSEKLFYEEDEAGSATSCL", "assay": "Binding specificity by chemiluminescent enzyme immunoassay (CLEIA)", "settings": "antibody 200, 40 and 8 ng/mL; 1 hour, 37° C.", "description": "as §1, §2"}, "PANC-1": {"test_system": "PANC-1", "assay": "In vitro cytotoxic sensitivity of CTB006", "format": "cell-based, human", "settings": "PANC-1, Pancreatic cancer"}, "BT-20": {"test_system": "BT-20", "assay": "In vitro cytotoxic sensitivity of CTB006", "format": "cell-based, human", "settings": "BT-20, Breast cancer"}, "colon cancer, CS146, 2#": {"test_system": "colon cancer, CS146, 2#", "assay": "Patients primary tumor tissue subcutaneous model (Day 30 after treatment)", "format": "in vivo, nude mice", "settings": "HuCTB006 10 mg/kg i.v. QW × 6w alone", "source_text": "(§3) Fresh primary tumor tissues from patients were implanted in NOD/SCID mice's flank, which developed into a primary tumor, which was then transferred to the nude mice's flank to allow the tumor reaching an exponential growth phase, and the tumor was named 1# tumor, and so on. When the tumor volume and number reached passage requirements, they were implanted into the right flank of nude mice. When the tumors' average volumes reached 100-200 mm^3, the mice were grouped.\n(§4) The bodyweight and major/minor axis of mice were measured twice a week, and Tumor Growth Inhibition (TGI) and tumor volume were calculated same as in 5.1.5. In addition, to evaluate the synergetic effect of drug combination in tumor growth, Jin Zhengjun Q value judgment method was used with the follow formula: Q=Ea+b/(Ea+Eb−Ea×Eb). Ea+b is the inhibition ratio of drug combination, Ea and Eb are the inhibition ratio of each of drug treatment when it is administered alone. […] The animals were monitored, and when the experiments were concluded, mice were sacrificed and tumors were extracted and weighted. All the animal experiments confer to the regulations of animal's welfare and the management of experimental animal usage.\nTumor volumes were represented with average±standard error. Data analysis was done using Spss16.0, One-Way ANOVA, LSD (homogeneity of variance) or Dunnett T3 (non-homogeneity of variance). […]"}, "A549": {"test_system": "A549", "assay": "In vitro cytotoxic sensitivity of CTB006", "format": "cell-based, human", "settings": "A549, Lung cancer"}, "MDA-MB-453": {"test_system": "MDA-MB-453", "assay": "In vitro cytotoxic sensitivity of CTB006", "format": "cell-based, human", "settings": "MDA-MB-453, Breast cancer"}, "lung cancer, CS225, 1#": {"test_system": "lung cancer, CS225, 1#", "assay": "Patients primary tumor tissue subcutaneous model (Day 37 after treatment)", "format": "in vivo, nude mice", "settings": "HuCTB006 10 mg/kg i.v. QW × 5w", "source_text": "as §3, §4\n(§5) Tumor volumes were represented with average±standard error. Data analysis was done using Spss16.0, One-Way ANOVA, LSD (homogeneity of variance) or Dunnett T3 (non-homogeneity of variance). […] P<0.05 represents significant difference."}, "MKN28": {"test_system": "MKN28", "assay": "In vitro cytotoxic sensitivity of CTB006", "format": "cell-based, human", "settings": "MKN28, Stomach cancer"}, "colon cancer, CS182, 5#": {"test_system": "colon cancer, CS182, 5#", "assay": "Patients primary tumor tissue subcutaneous model (Day 27 after treatment)", "format": "in vivo, nude mice", "settings": "HuCTB006 10 mg/kg i.v. QW × 3w", "source_text": "as §3, §4, §5"}},
  "data": [
    {"substance": "HuCTB006: Monospecific humanized chimeric monoclonal antibody directed to TRAIL-R2 receptor; heavy chain SEQ ID NO: 14, light chain SEQ ID NO: 12", "values": [
      {"measurement": "In vitro cytotoxic sensitivity of CTB006", "setting": "ZR-75-30", "value": "Non-responder"},
      {"measurement": "cross-reaction with coated antigen", "setting": "[1]", "value": "no cross-reaction"},
      {"measurement": "cross-reaction with coated antigen", "setting": "[2]", "value": "no cross-reaction"},
      {"measurement": "In vitro cytotoxic sensitivity of CTB006", "setting": "PANC-1", "value": "Non-responder"},
      {"measurement": "In vitro cytotoxic sensitivity of CTB006", "setting": "BT-20", "value": "Non-responder"},
      {"measurement": "inhibitory effect on the growth of CS146", "setting": "colon cancer, CS146, 2#", "value": "did not"},
      {"measurement": "In vitro cytotoxic sensitivity of CTB006", "setting": "A549", "value": "Non-responder"},
      {"measurement": "In vitro cytotoxic sensitivity of CTB006", "setting": "MDA-MB-453", "value": "Non-responder"},
      {"measurement": "T/C % (Calculated using tumor volumes)", "setting": "lung cancer, CS225, 1#", "value": 79.86, "unit": "%"},
      {"measurement": "Time of tumor volume changed significantly", "setting": "lung cancer, CS225, 1#", "value": 16},
      {"measurement": "Tumor Volume Mean ± SEM", "setting": "lung cancer, CS225, 1#", "value": "0.86 ± 0.19", "unit": "cm^3"},
      {"measurement": "Tumor weight Mean ± SEM", "setting": "lung cancer, CS225, 1#", "value": "0.89 ± 0.23", "unit": "g"},
      {"measurement": "TGI (Calculated using tumor volumes)", "setting": "lung cancer, CS225, 1#; 10 mg/kg", "value": 19.65, "unit": "%"},
      {"measurement": "TGI (Calculated using tumor weight)", "setting": "lung cancer, CS225, 1#; 10 mg/kg", "value": "−25.23", "unit": "%"},
      {"measurement": "In vitro cytotoxic sensitivity of CTB006", "setting": "MKN28", "value": "Non-responder"},
      {"measurement": "T/C % (Calculated using tumor volumes)", "setting": "colon cancer, CS182, 5#", "value": 102.39, "unit": "%"},
      {"measurement": "Time of tumor volume changed significantly", "setting": "colon cancer, CS182, 5#", "value": 3},
      {"measurement": "Tumor Volume Mean ± SEM", "setting": "colon cancer, CS182, 5#", "value": "0.95 ± 0.06", "unit": "cm^3"},
      {"measurement": "Tumor weight Mean ± SEM", "setting": "colon cancer, CS182, 5#", "value": "0.64 ± 0.06", "unit": "g"},
      {"measurement": "TGI (Calculated using tumor volumes)", "setting": "colon cancer, CS182, 5#; 10 mg/kg", "value": "−21.15", "unit": "%"},
      {"measurement": "TGI (Calculated using tumor weight)", "setting": "colon cancer, CS182, 5#; 10 mg/kg", "value": "−9.22", "unit": "%"},
      {"measurement": "TGI (Calculated using tumor volumes)", "setting": "colon cancer, CS182, 5#; listed as HUCTB006, 10 mg/kg", "value": "−21.15", "unit": "%"},
      {"measurement": "TGI (Calculated using tumor weight)", "setting": "colon cancer, CS182, 5#; listed as HUCTB006, 10 mg/kg", "value": "−9.22", "unit": "%"}
    ]}
  ]
}
